This series is described as follows: solvent given as SMILES.

The structures appear in SMILES notation. Where “and” joins values, the source holds several entries; their conditions need not be identical. Equal values may be shown once.

As to `CCN(CC)c1cccc2c1ccc1c(=O)oc(-c3ccc(C(F)(F)F)cc3)cc12`, the emission maximum was found to be 604 nm (in CC(C)=O); 469 nm (in CCCCCC); 561 nm (in CCCCCCCCO); 578 nm (in CCCCO); 587 nm (in CCCO); 599 nm (in CCO). This compound also gave an emission maximum (in CCOC(C)=O) of 568 nm, an emission maximum (in CN(C)C=O) of 613 nm, an emission maximum (in CO) of 604 nm and an emission maximum (in ClC(Cl)Cl) of 542 nm.

For `O=C(O)CC[N+]1=c2cc3c(cc2CCC1)=Cc1c(c2cc4c5c(c2oc1=O)CCCN5CCC4)O3`, the emission maximum is listed as 683 nm (in CC#N), 679 nm (in CO), 675 nm (in ClCCl) and 684 nm (in O).

The compound `Cc1ccc(N(C)C)cc1C1=C2C=CC(=[N+](C)C)C=C2[Si](C)(C)c2cc(N(C)C)ccc21` registered an emission maximum (in O) of 662 nm.

`COc1ccc(-c2ccc(-c3ccc(OC)cc3)c3nc(-c4ccccc4)c(-c4ccccc4)nc23)cc1`: the emission maximum is reported as 504 nm (in C1CCOC1); 512 nm (in CC#N); 477 nm (in CCCCCC); 514 nm (in CN(C)C=O); 492 nm (in Cc1ccccc1); 502 nm (in ClC(Cl)Cl).

`O=c1cc(-c2ccccc2)oc(-c2ccc(-c3nc4ccccn4c3NC3CCCCC3)cc2)c1` registered an emission maximum (in ClCCl) of 508 nm.

With `CC[N+]1(CC)CN2C(C)=CC(C)=C(C(=O)[O-])C2=N1`, the emission maximum stood at 453 nm (in CN(C)C=O) and 449 nm (in O).

In the case of `CCCCc1cc2c3c(c1)-c1ccccc1B(c1c(C)cc(C)cc1C)N3B(c1c(C)cc(C)cc1C)c1ccccc1-2`, the emission maximum (in ClCCl) stood at 413 nm.

In the case of `CCCC1(CCC)c2cc(-c3ccc(-c4ccc(OC)cc4)o3)ccc2-c2ccc(-c3ccc(-c4ccc(OC)cc4)o3)cc21`, for the setting “in C1CCCCC1”, the emission maximum is 425 nm.

`CCCc1ccc2c(c1)cc1n2B2c3c4c-1cccc4cc1cccc(c31)-c1cc3cc(CCC)ccc3n12` registered an emission maximum (in C1CCOC1) of 565 nm.

Take `O=C1OC(=O)c2ccc(N(c3ccccc3)c3c4ccccc4cc4ccccc34)c3cccc1c23`: the emission maximum runs as follows: (in C1CCOC1) 591 nm; (in CCCCCC) 514 nm; (in ClCCl) 608 nm; (in c1ccccc1) 560 nm.

In the case of `N#CC(C#N)=Cc1ccc2nc(C#Cc3ccc(N(c4ccccc4)c4ccccc4)cc3)sc2c1`, the emission maximum (in Cc1ccccc1) turned out to be 535 nm.

As to `C=CCNc1ccc2ccc3oc4cc(=[N+](C)C)ccc-4nc3c2c1`, the emission maximum was 637 nm (in CC#N), 631 nm (in CCO), 620 nm (in ClCCl) and 650 nm (in O).

On to `CN(C)c1ccc2c3c(ccc2c1)C(=O)CCC3`, for which the emission maximum by setting is: (in C1CCCCC1) 407 nm; (in CC#N) 448 nm; (in CC(C)O) 482 nm; (in CCC(C)=O) 443 nm; (in CCO) 489 nm; (in CCOC(C)=O) 429 nm. In addition, the emission maximum (in CS(C)=O) is listed as 453 nm, the emission maximum (in Cc1ccccc1) is 417 nm, the emission maximum (in ClCCl) turned out to be 440 nm and the emission maximum (in Clc1ccccc1) is reported as 423 nm.

`NNC(=O)c1ccc(/C=C/c2ccc(C(=O)NN)cc2)cc1` had an emission maximum (in CN(C)C=O) of 395 nm.

As for `COc1ccc(C#Cc2c3ccccc3c(C#Cc3ccc(OC)cc3)c3cc4sc(C)cc4cc23)cc1`, the emission maximum (in ClCCl) was 538 nm.

Take `COc1ccc(-c2cc3c(cc2OC)-c2c(c4c(c5c2-c2cc(OC)c(-c6ccc(OC)cc6)cc2C5)C(=O)N(CCC(C)C)C4=O)C3)cc1`: the emission maximum (in C1CCOC1) is 493 nm.

`c1ccc(-c2cnc3nn4ccccc4c3c2)cc1` came in with an emission maximum (in C1CCOC1) of 415 nm.

In turn, `CCC(C)(C)c1ccc2c(c1)C(CCOC)(CCOC)c1cc(-c3ccc4c(c3)C(CCOC)(CCOC)c3cc(C(C)(C)CC)ccc3-4)ccc1-2` returned an emission maximum (in C1CCCCC1) of 371 nm.

For `CCCCCCC1(CCCCCC)c2cc(-c3ccc(-c4ccc(-c5ccc(-c6ccc7c(c6)C(CCCCCC)(CCCCCC)c6cc(-n8c9ccccc9c9ccccc98)ccc6-7)s5)c5nsnc45)s3)ccc2-c2ccc(-n3c4ccccc4c4ccccc43)cc21`, the emission maximum (in ClCCl) is listed as 611 nm.

For `COc1ccc(-c2ccc(C(=O)NC(C)(C)C)c3c2ccc2c4ccccc4c4ccccc4c23)cc1`, the emission maximum (in ClCCl) was 420 nm.

As to `FC(F)(F)c1ccc(-c2pc3ccccc3s2)cc1` (configuration not stated), the emission maximum (in CC#N) was found to be 430 nm.

Compound `COc1cc2c(cc1-c1ccc(C=O)cc1)Cc1c3c(c4c(c1-2)-c1cc(OC)c(-c2ccc(C=O)cc2)cc1C4)C(=O)N(CCC(C)C)C3=O` came in with an emission maximum (in C1CCOC1) of 462 nm.

The compound `Cc1ccc(-c2nc(-c3ccc(O)cc3)[nH]c2-c2ccc(C)cc2)cc1` gave an emission maximum (in CO) of 395 nm.

For the setting “in ClCCl”, `CCOC(=O)c1c(-c2c(Cl)c3ccccc3oc2=O)nn(-c2ccccc2)c1C(=O)OCC` came in with an emission maximum of 406 nm.

With `CN(C)c1ccc2c(c1)COc1c-2oc2ccccc2c1=O`, the emission maximum was 411.43 nm (in C1CCCCC1); 489 nm and 491.43 nm (in CC#N); 464 nm and 461.07 nm (in CCOC(C)=O); 441 nm (in Cc1ccccc1).

For `Fc1ccc2sc3nc(-c4ccccc4)sc3c2c1`, where the note is “in CS(C)=O”, the emission maximum came out at 409 nm.

As for `CCN(CC)c1c2ccc(=[N+]3CCCCC3)cc-2oc2cc(N3CCCCC3)ccc12`, the emission maximum (in ClCCl) worked out at 558 nm.

As for `c1ccc(N2c3ccc4ccccc4c3-c3c4ccccc4cn[n+]3[B-]2(c2ccccc2)c2ccccc2)cc1`, the emission maximum (in Cc1ccccc1) is listed as 657 nm.

Turning to `N#CC1=CC(/C=C/c2ccccc2)=CC(C#N)=P1(c1ccccc1)c1ccccc1`, the emission maximum (in ClC(Cl)Cl) is on record as 581 nm.

Take `CC(C)[Si](C#Cc1ccc(C#C[Si](C(C)C)(C(C)C)C(C)C)c2nc3c(nc12)Cc1ccccc1-3)(C(C)C)C(C)C`: the emission maximum (in CCCCCC) stood at 430 nm.

With `O=C(c1ccc(C(=O)c2ccc(N3c4ccccc4Oc4ccccc43)cc2)cc1)c1ccc(N2c3ccccc3Oc3ccccc32)cc1`, the emission maximum (in Cc1ccccc1) is reported as 600 nm and the emission maximum (in c1cc(-c2cccc(-n3c4ccccc4c4ccccc43)c2)cc(-n2c3ccccc3c3ccccc32)c1) turned out to be 555 nm.

Regarding `Cc1ccc(/C2=c3\cc/c(o3)=C(\c3ccc(C)cc3)c3ccc([nH]3)-c3ccc4n3[P-](=O)(=O)[N+]3=C(C=CC3=C4c3ccc[nH]3)c3ccc2[nH]3)cc1`, the emission maximum (in ClC(Cl)Cl) stood at 740 nm.

Turning to `CCCCCn1c2ccc(S(=O)(=O)O)cc2c(=O)c2cc(S(=O)(=O)O)ccc21`, the emission maximum reads like this: (in CS(C)=O) 421 nm; (in O) 431 nm.

Turning to `COc1ccc(C#Cc2ccc3nc4ccc(C#Cc5ccc(OC)cc5)cn4c(=O)c3c2)cc1`, the emission maximum (in ClCCl) worked out at 486 nm.

On to `CCc1cccc(CC)c1-c1c2ccccc2c(C#Cc2ccccc2)c2cc3ccccc3cc12`, for which the emission maximum (in ClCCl) is recorded as 538 nm.

In the case of `COc1cccc2cc(-c3ccc([N+](=O)[O-])cc3)c(=O)oc12`, the emission maximum is, setting by setting: (in C1CCOC1) 373 nm; (in CC#N) 363 nm; (in CS(C)=O) 385 nm; (in ClC(Cl)Cl) 377 nm.

The values are drawn from the Deep4Chem optical property database.
